Read-outs that look alike come from different tables or passages of the source. Marks after values point to notes of the source that are not given here.
Legend:
BHK cells [1] = assay: Distribution of LBPA-positive structures, confocal morphometry; type: cell-based; details: 16 h; for LBPA-positive structures Diameter / LBPA-positive structures N°/cell profile: BHK cells, 10 μM analogue, M ± SE; for LBPA-positive structures Diameter: control 1.46 ± 0.02; for LBPA-positive structures N°/cell profile: control 28.6 ± 1.1
blood monocytes = assay: Transferrin recycling; type: cell-based; details: human monocytes, 10 μM
Vero cells = type: cell-based
[2] = system: feline immunodeficiency virus (FIV) VLP budding from 293T cells; type: cell-based
[3] = system: HIV-1 VLP budding from 293T cells; type: cell-based, human immunodeficiency virus type 1
[4] = system: early endosomes from BHK cells
BHK cells [5] = assay: Cell cholesterol content; details: 10 μM, 16 h, p = 0.03, N = 5
K562 cells = assay: Exosome release; details: 10 μM, 16 h, N = 7, change not significant
[6] = Aqueous solubility of hydrochloride salt; type: physicochemical; details: for Aqueous solubility of hydrochloride salt At pH 5.0 / Aqueous solubility of hydrochloride salt At pH 7.4 / solubility: 22 °C; for Aqueous solubility of hydrochloride salt At pH 5.0: 5 mM K2PO4 adjusted to pH 5.0, methanol as cosolvent; for Aqueous solubility of hydrochloride salt At pH 7.4: 5 mM K2PO4 adjusted to pH 7.4, methanol as cosolvent; for pKa × solubility in water at pH 5.0: product of calculated pKa and solubility at pH 5.0; for solubility: phosphate buffer
BHK cells [7] = assay: Cell viability / tolerated concentration; type: cell-based
[8] = ref http://www.patentstorm.us/patents/6939865/description.html; cited from earlier work
[9] = ref [27]; cited from earlier work
[10] = 10 μM, 5 independent experiments, p < 0.01

SMILES	LBPA-positive structures Diameter (BHK cells [1])	LBPA-positive structures N°/cell profile (BHK cells [1])	Aqueous solubility of hydrochloride salt At pH 5.0 [6]	Aqueous solubility of hydrochloride salt At pH 7.4 [6]	pKa × solubility in water at pH 5.0 [6]	further results
CCCCc1oc2ccccc2c1C(=O)c1cc(I)c(OCCN(CC)CC)c(I)c1 [AMI, Amiodarone]	2.01 ± 0.03 μm	5.2 ± 0.4	–	–	–	decrease in number of LBPA-rich structures per cell profile (BHK cells [1]; [10]): 69.0 ± 4.5%; increase in diameter of LBPA-rich structures (BHK cells [1]; [10]): 42.6 ± 5.2%; effect on transferrin recycling (blood monocytes): no effect; effect on activity of Shiga toxin (Vero cells): not decreased; release of mature VLPs (FIV) [2]: did not inhibit the release of mature VLPs; release of mature VLPs (HIV-1) [3]: did not inhibit the release of mature VLPs; change in endosome-associated fluorescence [4]: no change; increase in cell cholesterol (BHK cells [5]): 17.3 ± 5.2%; decrease in secreted acetylcholinesterase with respect to control cells (K562 cells): 12.0 ± 8.7%
CCCCc1oc2ccccc2c1C(=O)c1cc(I)c(OCCN2CCCCC2)c(I)c1.Cl [PIPAM, 4-(2-butyl-benzofuran-3-yl)-[3,5-diiodophenyl-4-(2-piperidinoethoxy)phenyl] methanone·hydrochloride]	1.73 ± 0.03 μm	14.7 ± 2.1	2.22 ^b μM	0.023 ^b μM	11.88	–
CCCCc1oc2ccccc2c1C(=O)c1cc(I)c(OCCN2CCOCC2)c(I)c1 [MOPAM, 2-n-butyl-3-(3,5-diiodo-4-β-Nmorpholinoethoxybenzoyl)benzofuran]	1.45 ± 0.02 μm	29.3 ± 0.6	0.17 ^b μM	0.015 ^b μM	0.55	–
CCCCc1oc2ccccc2c1C(=O)c1cc(I)c(OCCN2CCCC2)c(I)c1.Cl [PYRAM, 4-(2-butyl-benzofuran-3-yl)-[3,5-diiodophenyl-4-(2-pyrrolidin-1-yl-ethoxy)phenyl]-methanone·hydrochloride]	2.08 ± 0.05 μm	7.6 ± 0.6	1.86 ^b μM	0.049 ^b μM	9.22	–
CCCCc1oc2ccccc2c1C(=O)c1cc(I)c(OCCN(C(C)C)C(C)C)c(I)c1.Cl [DIPAM, (2-butyl-benzofuran-3-yl)-4-[2-(diisopropylamino)ethoxy]-3,5-diiodophenyl-methanone·hydrochloride]	1.64 ± 0.04 μm	24.6 ± 3.0	0.23 ^b μM	0.014 ^b μM	2.07	–
CCCCc1oc2ccccc2c1C(=O)c1cc(I)c(OCCNCC)c(I)c1 [MDEA, 2-n-butyl-3-(3,5-diiodo-4-ethylaminoethoxybenzoyl)-benzofuran, reference compound]	–	–	–	–	–	solubility ([6]; pH 5): 12 µM; solubility ([6]; pH 7.4): 0.11 µM
CCCCc1oc2ccccc2c1C(=O)c1cc(I)c(OCCN(C)C)c(I)c1 [MeAMI, (2-butyl-benzofuran-3-yl)-4-[2-(dimethylamino-ethoxy)-3,5-diiodophenyl]methanone]	2.45 ± 0.08 μm	4.5 ± 0.6	2.21 ^b μM	0.051 ^b μM	17.50	–
CCCCc1oc2ccc(NS(C)(=O)=O)cc2c1C(=O)c1ccc(OCCCN(CCCC)CCCC)cc1 [DRO, Dronedarone]	–	–	–	–	–	highest concentration tolerated by transfected cells (BHK cells [7]; BHK cells transiently transfected with pEGFP-LC3, 16 h): 2 µM; concentration toxic to cells (BHK cells [7]; BHK cells, 16 h): > 5 µM; Aqueous solubility of hydrochloride salt At pH 7.4 [8]: <0.001 ^c μM; serum levels, times lower than in patients treated with amiodarone [9]: over 10 times
